Patent US11639343B2, “Compounds targeting and degrading BCR-ABL protein and its antitumor application” (ShanghaiTech University, priority 2019, dated 2023)

What was measured:
K562 (BCR-ABL+) cells = experiment: CCK-8 proliferation inhibition, K562 cells; type: cell-based, human; conditions: Homo sapiens, K562, 48 h, CCK-8, 48 hours of drug treatment; read-out: Proliferative inhibitory activity (IC50, nM) K562 (BCR-ABL+);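 note: Ten-point threefold dilution series starting at 10 µM, absorbance at 450 nm after 2 h with CCK-8, DMSO as negative control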
U937 (BCR-ABL-) cells = experiment: CCK-8 proliferation inhibition, U937 cells; type: cell-based, human; conditions: Homo sapiens, U-937; CCK-8, 48 hours of drug treatment, highest concentration 10 μM; read-out: Proliferative inhibitory activity (IC50, nM) U937 (BCR-ABL-);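 note: Ten-point threefold dilution series, absorbance at 450 nm after 2 h with CCK-8 reagent, DMSO as negative control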
HEK293 (BCR-ABL-) cells = experiment: CCK-8 proliferation inhibition, HEK293 cells; conditions: Homo sapiens, HEK293, 48 h, read-out: Proliferative inhibitory activity (IC50, nM) HEK293 (BCR-ABL-);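 note: Ten-point threefold dilution series starting at 10 µM, CCK-8 absorbance at 450 nm read after 2 h reagent incubation, DMSO-treated cells as negative control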
c-ABL protein = c-ABL protein (Homo sapiens, UniProt P00519); experiment: Western blot degradation of c-ABL in K562 cells; type: cell-based; design: Western blot was used to detect the expression of BCR-ABL and c-ABL protein in K562 cells; endogenous in cells; host or cells: K562; conditions: 16 hours, 1 nM-10 μM
Sequence of c-ABL protein (P00519 whole entry): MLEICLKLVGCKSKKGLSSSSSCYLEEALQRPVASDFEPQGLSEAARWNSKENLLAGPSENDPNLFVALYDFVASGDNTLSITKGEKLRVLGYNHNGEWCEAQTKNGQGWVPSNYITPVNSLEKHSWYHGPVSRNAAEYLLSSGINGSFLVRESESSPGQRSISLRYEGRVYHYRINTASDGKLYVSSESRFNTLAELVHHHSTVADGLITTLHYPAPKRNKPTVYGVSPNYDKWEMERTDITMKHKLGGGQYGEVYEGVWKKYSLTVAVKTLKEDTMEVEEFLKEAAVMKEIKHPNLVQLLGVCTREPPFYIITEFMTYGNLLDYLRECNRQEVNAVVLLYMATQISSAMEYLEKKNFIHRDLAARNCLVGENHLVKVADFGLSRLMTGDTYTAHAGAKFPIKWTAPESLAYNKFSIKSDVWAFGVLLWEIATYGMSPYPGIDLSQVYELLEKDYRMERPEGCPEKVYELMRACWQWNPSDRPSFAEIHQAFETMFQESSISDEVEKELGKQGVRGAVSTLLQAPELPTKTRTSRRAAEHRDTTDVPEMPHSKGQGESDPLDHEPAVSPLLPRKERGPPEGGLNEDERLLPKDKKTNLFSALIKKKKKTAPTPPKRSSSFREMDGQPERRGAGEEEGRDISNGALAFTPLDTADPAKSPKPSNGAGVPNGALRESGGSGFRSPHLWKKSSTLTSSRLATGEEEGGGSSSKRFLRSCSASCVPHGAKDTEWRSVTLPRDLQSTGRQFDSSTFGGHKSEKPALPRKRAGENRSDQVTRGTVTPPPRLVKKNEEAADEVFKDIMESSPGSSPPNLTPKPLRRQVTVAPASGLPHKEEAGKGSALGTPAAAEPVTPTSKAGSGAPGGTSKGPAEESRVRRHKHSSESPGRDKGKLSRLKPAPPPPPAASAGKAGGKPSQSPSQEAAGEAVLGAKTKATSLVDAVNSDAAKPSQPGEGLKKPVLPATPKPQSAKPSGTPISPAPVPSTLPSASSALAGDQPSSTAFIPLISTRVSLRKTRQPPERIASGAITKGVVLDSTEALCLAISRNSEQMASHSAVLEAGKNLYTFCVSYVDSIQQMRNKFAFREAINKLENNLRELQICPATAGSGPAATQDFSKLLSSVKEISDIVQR
Procedure: (§1) (1) Cell seed: K562 cells were added to the 24 well plates, with a cell density of 3×10^5/ml and a total volume of 1.5 ml; Five concentration gradients, 1 nm, 10 nm, 100 nm, 1 μM, and 10 μM, were respectively set for PROTAD series compounds and comparative examples compounds (Dasa-6-2-2-6-VHL, Dasa-6-2-6-CRBN). […] After 16 hours of drug treatment, the cells were collected in 1.5 ml ep tube, centrifuged at 3000 rpm for 3 minutes, and then added 30 μL PBS and 30 ul 2×SDS to cell precipitated, lysate Heat at 100° C. for 5 minutes, then place on ice for 5 minutes, centrifuged at 10000 rpm for 5 minutes, and take the supernatant as the total protein extracted. The protein concentration was determined by the Bradford method. After each sample was at the same concentration, bromophenol blue was added as the sample indicator.
(§2) (2) Electrophoresis: the starting voltage of the BioRad electrophoresis instrument was 80V, and as the dye enters the separation gel, the voltage was adjusted to 120V;
(§3) (3) Film transfer: prepare filter paper and nitrocellulose membrane with the corresponding size of the gel, filter paper, and NC film were soaked in transfer electrophoresis buffer.
(§4) DC50 (concentration required to degrade protein by half) were calculated based on the intensity from western blot, and data were analyzed via Prism GraphPad with non-linear regression.

BCR-ABL protein = BCR-ABL protein (Homo sapiens, UniProt P00519); experiment: Western blot degradation of BCR-ABL in K562 cells; type: cell-based; design: Western blot was used to detect the expression of BCR-ABL and c-ABL protein in K562 cells; BCR (fusion partner, P11274); endogenous in cells; host or cells: K562; the other entry of the earlier key: BCR (P11274, Breakpoint cluster region protein); conditions: 16 hours, 1 nM-10 μM
Sequence of BCR-ABL protein (P00519 with tags, fused parts or gaps): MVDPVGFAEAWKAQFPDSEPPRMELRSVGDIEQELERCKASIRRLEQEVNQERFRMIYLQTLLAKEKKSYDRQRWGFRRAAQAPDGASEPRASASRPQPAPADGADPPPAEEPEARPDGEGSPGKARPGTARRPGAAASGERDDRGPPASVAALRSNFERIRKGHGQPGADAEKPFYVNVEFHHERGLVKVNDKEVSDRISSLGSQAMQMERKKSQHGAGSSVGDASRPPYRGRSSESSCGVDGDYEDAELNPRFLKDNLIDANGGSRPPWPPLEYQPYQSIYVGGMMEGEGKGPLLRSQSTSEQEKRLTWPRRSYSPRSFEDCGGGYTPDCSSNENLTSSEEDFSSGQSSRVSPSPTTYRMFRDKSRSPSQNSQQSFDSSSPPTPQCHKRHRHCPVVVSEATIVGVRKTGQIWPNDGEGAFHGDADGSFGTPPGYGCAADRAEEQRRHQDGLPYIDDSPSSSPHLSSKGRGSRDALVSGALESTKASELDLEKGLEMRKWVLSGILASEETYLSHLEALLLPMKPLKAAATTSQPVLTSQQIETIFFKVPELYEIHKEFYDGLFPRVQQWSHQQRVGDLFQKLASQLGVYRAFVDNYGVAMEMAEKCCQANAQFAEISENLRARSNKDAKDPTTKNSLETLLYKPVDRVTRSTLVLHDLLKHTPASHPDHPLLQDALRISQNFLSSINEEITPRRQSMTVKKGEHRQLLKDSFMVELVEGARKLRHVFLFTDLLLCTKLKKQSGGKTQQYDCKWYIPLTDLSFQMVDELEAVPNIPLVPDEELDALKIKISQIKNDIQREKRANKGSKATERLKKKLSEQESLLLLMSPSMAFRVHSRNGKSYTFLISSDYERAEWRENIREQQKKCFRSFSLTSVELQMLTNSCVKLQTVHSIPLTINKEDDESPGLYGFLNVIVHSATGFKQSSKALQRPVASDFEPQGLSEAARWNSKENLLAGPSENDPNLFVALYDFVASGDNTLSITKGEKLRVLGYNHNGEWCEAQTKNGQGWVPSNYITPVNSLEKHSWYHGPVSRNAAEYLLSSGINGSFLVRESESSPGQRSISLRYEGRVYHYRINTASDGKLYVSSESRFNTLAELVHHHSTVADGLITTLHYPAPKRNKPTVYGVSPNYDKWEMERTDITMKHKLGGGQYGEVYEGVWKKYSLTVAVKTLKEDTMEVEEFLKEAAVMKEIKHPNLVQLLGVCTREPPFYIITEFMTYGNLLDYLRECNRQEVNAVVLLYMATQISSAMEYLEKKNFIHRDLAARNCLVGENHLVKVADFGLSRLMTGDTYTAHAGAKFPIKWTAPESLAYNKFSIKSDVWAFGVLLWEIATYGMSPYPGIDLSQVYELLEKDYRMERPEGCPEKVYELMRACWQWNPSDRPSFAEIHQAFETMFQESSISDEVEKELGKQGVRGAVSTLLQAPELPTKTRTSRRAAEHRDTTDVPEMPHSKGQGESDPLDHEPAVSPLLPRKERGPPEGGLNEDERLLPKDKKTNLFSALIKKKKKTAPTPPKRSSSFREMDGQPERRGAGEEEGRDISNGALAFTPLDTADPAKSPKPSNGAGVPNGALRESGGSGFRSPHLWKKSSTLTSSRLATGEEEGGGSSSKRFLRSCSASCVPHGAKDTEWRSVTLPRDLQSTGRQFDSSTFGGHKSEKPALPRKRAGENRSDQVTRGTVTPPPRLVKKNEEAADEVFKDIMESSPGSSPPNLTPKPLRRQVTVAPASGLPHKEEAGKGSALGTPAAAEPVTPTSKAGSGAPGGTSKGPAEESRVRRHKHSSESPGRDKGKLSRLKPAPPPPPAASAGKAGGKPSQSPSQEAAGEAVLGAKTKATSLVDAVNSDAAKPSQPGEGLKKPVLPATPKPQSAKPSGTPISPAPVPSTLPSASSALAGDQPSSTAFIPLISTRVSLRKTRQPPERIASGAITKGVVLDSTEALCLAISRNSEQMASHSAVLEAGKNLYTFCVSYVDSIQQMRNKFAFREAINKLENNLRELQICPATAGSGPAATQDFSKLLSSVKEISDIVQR
Procedure: as §1, §2, §3, §4

IC50 (K562 (BCR-ABL+) cells) [nM] | IC50 (U937 (BCR-ABL-) cells) [nM] | DC50 (c-ABL protein) [nM] | DC50 (BCR-ABL protein) [nM] | SMILES | IC50 (HEK293 (BCR-ABL-) cells) [nM]
22.4 | > 10000 | 100 to 1000 | 10 to 100 | Cc1nc(Nc2ncc(C(=O)Nc3c(C)cccc3Cl)s2)cc(N2CCN(C(=O)CCCCCCCC(=O)N[C@H](C(=O)N3C[C@H](O)C[C@H]3C(=O)NCc3ccc(-c4scnc4C)cc3)C(C)(C)C)CC2)n1 [SIAIS151179, N-(2-chloro-6-methylphenyl)-2-((6-(4-(9-(((S)-1-((2S,4R)-4-hydroxy-2-((4-(4-methylthiazol-5-yl)benzyl)carbamoyl)pyrrolidin-1-yl)-3,3-dimethyl-1-oxobutan-2-yl)amino)-9-oxononanoyl)piperazin-1-yl)-2-methylpyrimidin-4-yl)amino)thiazole-5-carboxamide] | > 10000
2160 | > 10000 | > 1000 | 100 to 1000 | Cc1nc(Nc2ncc(C(=O)Nc3c(C)cccc3Cl)s2)cc(N2CCN(C(=O)CCOCCOCCOCCOCCC(=O)N[C@H](C(=O)N3C[C@H](O)C[C@H]3C(=O)NCc3ccc(-c4scnc4C)cc3)C(C)(C)C)CC2)n1 [SIAIS151078, N-(2-chloro-6-methylphenyl)-2-((6-(4-((S)-18-((2S,4R)-4-hydroxy-2-((4-(4-methylthiazol-5-yl)benzyl)carbamoyl)pyrrolidine-1-carbonyl)-19,19-dimethyl-16-oxo-4,7,10,13-tetraoxa-17-azaicosanoyl)piperazin-1-yl)-2-methylpyrimidin-4-yl)amino)thiazole-5-carboxamide] | > 10000
77.6 | > 10000 | 1 to 10 | 1 to 10 | COc1cc(Nc2c(C#N)cnc3cc(OCCCN4CCN(C(=O)CCC(=O)NCCNc5cccc6c5C(=O)N(C5CCC(=O)NC5=O)C6=O)CC4)c(OC)cc23)c(Cl)cc1Cl (stereo not shown) [SIAIS164136, 4-(4-(3-((3-cyano-4-((2,4-dichloro-5-methoxyphenyl)amino)-6-methoxyquinolin-7-yl)oxy)propyl)piperazin-1-yl)-N-(2-((2-(2,6-dioxopiperidin-3-yl)-1,3-dioxoisoindolin-4-yl)amino)ethyl)-4-oxobutanamide] | > 10000
3650 | > 10000 | 10 to 100 | 10 to 100 | COc1cc(Nc2c(C#N)cnc3cc(OCCCN4CCN(C(=O)CCCCCCNc5cccc6c5C(=O)N(C5CCC(=O)NC5=O)C6=O)CC4)c(OC)cc23)c(Cl)cc1Cl (stereo not shown) [SIAIS151167, 4-((2,4-dichloro-5-methoxyphenyl)amino)-7-(3-(4-(7-((2-(2,6-dioxopiperidin-3-yl)-1,3-dioxoisoindolin-4-yl)amino)heptanoyl)piperazin-1-yl)propoxy)-6-methoxyquinoline-3-carbonitrile] | > 10000
87 | > 10000 | 100 to 1000 | 10 to 100 | Cc1nc(Nc2ncc(C(=O)Nc3c(C)cccc3Cl)s2)cc(N2CCN(C(=O)CCCC(=O)N[C@H](C(=O)N3C[C@H](O)C[C@H]3C(=O)NCc3ccc(-c4scnc4C)cc3)C(C)(C)C)CC2)n1 [SIAIS151175, N-(2-chloro-6-methylphenyl)-2-((6-(4-(5-(((S)-1-((2S,4R)-4-hydroxy-2-((4-(4-methylthiazol-5-yl)benzyl)carbamoyl)pyrrolidin-1-yl)-3,3-dimethyl-1-oxobutan-2-yl)amino)-5-oxopentanoyl)piperazin-1-yl)-2-methylpyrimidin-4-yl)amino)thiazole-5-carboxamide] | 3890
4650 | > 10000 | 10 to 100 | 10 to 100 | COc1cc(Nc2c(C#N)cnc3cc(OCCCN4CCN(C(=O)CCOCCOCCOCCOCCNc5cccc6c5C(=O)N(C5CCC(=O)NC5=O)C6=O)CC4)c(OC)cc23)c(Cl)cc1Cl (stereo not shown) [SIAIS151160, 4-((2,4-dichloro-5-methoxyphenyl)amino)-7-(3-(4-(1-((2-(2,6-dioxopiperidin-3-yl)-1,3-dioxoisoindolin-4-yl)amino)-3,6,9,12-tetraoxapentadecan-15-oyl)piperazin-1-yl)propoxy)-6-methoxyquinoline-3-carbonitrile] | > 10000
14.8 | > 10000 | 10 to 100 | 1 to 10 | Cc1nc(Nc2ncc(C(=O)Nc3c(C)cccc3Cl)s2)cc(N2CCN(C(=O)CCOCCOCCOCCNc3cccc4c3C(=O)N(C3CCC(=O)NC3=O)C4=O)CC2)n1 (stereo not shown) [SIAIS151067, N-(2-chloro-6-methylphenyl)-2-((6-(4-(3-(2-(2-(2-((2-(2,6-dioxopiperidin-3-yl)-1,3-dioxoisoindolin-4-yl)amino)ethoxy)ethoxy)ethoxy)propanoyl)piperazin-1-yl)-2-methylpyrimidin-4-yl)amino)thiazole-5-carboxamide] | > 10000
78 | > 10000 | 100 to 1000 | 100 to 1000 | Cc1nc(Nc2ncc(C(=O)Nc3c(C)cccc3Cl)s2)cc(N2CCN(C(=O)CCC(=O)N[C@H](C(=O)N3C[C@H](O)C[C@H]3C(=O)NCc3ccc(-c4scnc4C)cc3)C(C)(C)C)CC2)n1 [SIAIS151174, N-(2-chloro-6-methylphenyl)-2-((6-(4-(4-(((S)-1-((2S,4R)-4-hydroxy-2-((4-(4-methylthiazol-5-yl)benzyl)carbamoyl)pyrrolidin-1-yl)-3,3-dimethyl-1-oxobutan-2-yl)amino)-4-oxobutanoyl)piperazin-1-yl)-2-methylpyrimidin-4-yl)amino)thiazole-5-carboxamide] | > 10000
1.47 | > 10000 | 1 to 10 | 1 to 10 | Cc1nc(Nc2ncc(C(=O)Nc3c(C)cccc3Cl)s2)cc(N2CCN(C(=O)CCCCCCNc3cccc4c3C(=O)N(C3CCC(=O)NC3=O)C4=O)CC2)n1 (stereo not shown) [SIAIS151181, N-(2-chloro-6-methylphenyl)-2-((6-(4-(7-((2-(2,6-dioxopiperidin-3-yl)-1,3-dioxoisoindolin-4-yl)amino)heptanoyl)piperazin-1-yl)-2-methylpyrimidin-4-yl)amino)thiazole-5-carboxamide] | > 10000
2.57 | > 10000 | 10 to 100 | 10 to 100 | Cc1nc(Nc2ncc(C(=O)Nc3c(C)cccc3Cl)s2)cc(N2CCN(C(=O)CCCCCOCCOCCOCCCCCC(=O)Nc3cccc4c3C(=O)N(C3CCC(=O)NC3=O)C4=O)CC2)n1 (stereo not shown) [SIAIS171114, N-(2-chloro-6-methylphenyl)-2-((6-(4-(6-(2-(2-((6-((2-(2,6-dioxopiperidin-3-yl)-1,3-dioxoisoindolin-4-yl)amino)-6-oxohexyl)oxy)ethoxy)ethoxy)hexanoyl)piperazin-1-yl)-2-methylpyrimidin-4-yl)amino)thiazole-5-carboxamide] | > 10000
1.03 | > 10000 | 10 to 100 | 10 to 100 | Cc1nc(Nc2ncc(C(=O)Nc3c(C)cccc3Cl)s2)cc(N2CCN(C(=O)CCCC(=O)Nc3cccc4c3CN(C3CCC(=O)NC3=O)C4=O)CC2)n1 (stereo not shown) [SIAIS164110, N-(2-chloro-6-methylphenyl)-2-((6-(4-(5-((2-(2,6-dioxopiperidin-3-yl)-1-oxoisoindolin-4-yl)amino)-5-oxopentanoyl)piperazin-1-yl)-2-methylpyrimidin-4-yl)amino)thiazole-5-carboxamide] | > 10000
